In ChEMBL document CHEMBL3638677, “Bicyclic compounds and their uses as dual c-SRC/JAK inhibitors” (2015):

Biological target: Proto-oncogene tyrosine-protein kinase Src (Homo sapiens, UniProt P12931)
Assay: TR-FRET Assay: Compounds were screened in the TR-FRET assay for JAK2 and c-Src kinase inhibition. Ultra light poly GT (Perkin Elmer) was used as the substrate for JAK2 and c-Src with the ATP concentration of 10 μM and 50 μM, respectively. The Eu-labelled anti-phospho tyrosine antibody (Perkin Elmer) was added at 1 nM and the fluorescence emission at 615 nm and 665 nm was measured with an excitation wavelength of 340 nm.

Chain of Proto-oncogene tyrosine-protein kinase Src (P12931 2-536 limits assumed): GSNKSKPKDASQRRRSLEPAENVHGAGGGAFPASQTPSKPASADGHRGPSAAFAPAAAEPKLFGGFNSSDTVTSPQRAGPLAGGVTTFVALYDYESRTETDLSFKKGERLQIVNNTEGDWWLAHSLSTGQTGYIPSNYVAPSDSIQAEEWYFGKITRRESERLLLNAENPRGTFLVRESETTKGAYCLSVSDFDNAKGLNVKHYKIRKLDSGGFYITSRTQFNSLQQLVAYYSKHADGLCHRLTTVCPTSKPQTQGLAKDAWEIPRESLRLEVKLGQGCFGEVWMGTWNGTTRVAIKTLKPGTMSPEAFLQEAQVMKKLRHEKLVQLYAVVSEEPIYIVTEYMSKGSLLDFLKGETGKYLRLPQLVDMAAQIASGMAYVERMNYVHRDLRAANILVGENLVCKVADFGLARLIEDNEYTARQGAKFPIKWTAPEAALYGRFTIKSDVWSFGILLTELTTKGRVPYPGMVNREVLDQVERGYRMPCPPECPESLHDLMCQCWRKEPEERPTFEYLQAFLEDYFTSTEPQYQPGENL

Row | IC50 [nM] | Structure (SMILES)
1 | 28 | Cc1ccc(NC(=O)c2cccc(C(C)(C)C)c2)cc1N1CCc2nc(Nc3ccc(N4CCN(C)CC4)cc3)ncc2C1=O
2 | 2 | Cc1ccc(NC(=O)c2cccc(C(F)(F)F)c2)cc1N1CCc2nc(Nc3ccc(C(=O)NC4CCN(C)CC4)cc3)ncc2C1

Biological target: Tyrosine-protein kinase JAK2 (Homo sapiens, UniProt O60674)
Assay: TR-FRET Assay: Compounds were screened in the TR-FRET assay for JAK2 and c-Src kinase inhibition. Ultra light poly GT (Perkin Elmer) was used as the substrate for JAK2 and c-Src with the ATP concentration of 10 μM and 50 μM, respectively.

Chain of Tyrosine-protein kinase JAK2 (O60674 whole entry): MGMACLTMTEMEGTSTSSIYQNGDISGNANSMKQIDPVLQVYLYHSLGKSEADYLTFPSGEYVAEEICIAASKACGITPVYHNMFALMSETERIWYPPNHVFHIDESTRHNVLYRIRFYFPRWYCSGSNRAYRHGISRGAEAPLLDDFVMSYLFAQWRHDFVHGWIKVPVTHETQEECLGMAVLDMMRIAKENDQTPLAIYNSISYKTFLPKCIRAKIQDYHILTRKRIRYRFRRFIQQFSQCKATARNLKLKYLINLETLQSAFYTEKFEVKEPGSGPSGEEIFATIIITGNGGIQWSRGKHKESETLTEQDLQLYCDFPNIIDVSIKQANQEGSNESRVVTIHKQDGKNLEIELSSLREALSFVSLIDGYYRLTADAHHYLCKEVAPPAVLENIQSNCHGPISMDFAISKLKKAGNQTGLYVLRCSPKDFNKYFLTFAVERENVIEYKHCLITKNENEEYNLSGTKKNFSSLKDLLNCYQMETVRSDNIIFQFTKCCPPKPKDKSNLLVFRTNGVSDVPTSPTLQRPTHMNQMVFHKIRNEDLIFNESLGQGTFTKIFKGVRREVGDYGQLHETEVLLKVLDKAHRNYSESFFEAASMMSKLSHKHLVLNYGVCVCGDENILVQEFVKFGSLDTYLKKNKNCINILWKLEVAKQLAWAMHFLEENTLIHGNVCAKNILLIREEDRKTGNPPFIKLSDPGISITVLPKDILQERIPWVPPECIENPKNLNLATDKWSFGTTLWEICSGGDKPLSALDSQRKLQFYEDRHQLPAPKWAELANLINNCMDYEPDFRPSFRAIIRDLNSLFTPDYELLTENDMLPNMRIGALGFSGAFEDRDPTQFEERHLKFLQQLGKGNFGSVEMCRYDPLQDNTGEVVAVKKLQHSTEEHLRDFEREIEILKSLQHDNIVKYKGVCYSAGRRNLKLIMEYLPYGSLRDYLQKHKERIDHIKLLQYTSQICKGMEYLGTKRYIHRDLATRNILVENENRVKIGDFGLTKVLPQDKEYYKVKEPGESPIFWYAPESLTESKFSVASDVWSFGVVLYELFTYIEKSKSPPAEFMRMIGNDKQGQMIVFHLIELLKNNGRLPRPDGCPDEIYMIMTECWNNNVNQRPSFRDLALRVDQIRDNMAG

Row | IC50 [nM] | Structure (SMILES)
3 | 45 | Cc1ccc(NC(=O)c2cccc(C(C)(C)C)c2)cc1N1CCc2nc(Nc3ccc(N4CCN(C)CC4)cc3)ncc2C1=O
4 | 7 | Cc1ccc(NC(=O)c2cccc(C(F)(F)F)c2)cc1N1CCc2nc(Nc3ccc(C(=O)NC4CCN(C)CC4)cc3)ncc2C1
5 | 9 | CN1CCN(c2ccc(Nc3ncc4c(n3)CCN(c3cc(NC(=O)c5cc(F)cc(C(F)(F)F)c5)ccc3Cl)C4=O)cc2)CC1
6 | 8.8 | CN1CCN(c2ccc(Nc3ncc4c(n3)CCN(c3cc(NC(=O)c5cccc(C(F)(F)F)c5)ccc3Cl)C4)cc2)CC1
